The values that follow come from US20130315843A1, “COMPOSITION FOR REDUCTION OF TRPA1 AND TRPV1 SENSATIONS” (priority 2012, published 2013).

The target in this assay is human TRPA1 (Homo sapiens, UniProt O75762). Nature of the assay: FLIPR Ca2+ assay, reduction of hydrogen peroxide activation of TRPA1. The format is cell-based. The arrangement: expressed in transfected cells. The settings on record: for inhibition at 400 µM / inhibition at 100 µM: read-out: % Reduction of Hydrogen Peroxide TRPA1 Activation. Here is the method:
After centrifugation, a pellet of cells was formed in the bottom of the tube separating them from the supernatant solution.
The pelleted cells were re-suspended in 10 ml assay buffer and 90 μl aliquots (˜50,000 cells) per well delivered to a 96-well assay plate containing 10 μl of test compounds ([…]) or buffer control and incubated at room temperature for 30 minutes.

Where [1] appears, read: 100 μM antagonist vs 500 μM hydrogen peroxide.
[2] abbreviates: 400 μM antagonist vs 500 μM hydrogen peroxide.
Setting [3] is: antagonist 400 μM against 200 μM hydrogen peroxide.
[4] abbreviates: compound 100 μM against 200 μM hydrogen peroxide, Sets 1-4.

Where two headings read alike, the source gives them in different places.

Chain of human TRPA1 (O75762 whole entry): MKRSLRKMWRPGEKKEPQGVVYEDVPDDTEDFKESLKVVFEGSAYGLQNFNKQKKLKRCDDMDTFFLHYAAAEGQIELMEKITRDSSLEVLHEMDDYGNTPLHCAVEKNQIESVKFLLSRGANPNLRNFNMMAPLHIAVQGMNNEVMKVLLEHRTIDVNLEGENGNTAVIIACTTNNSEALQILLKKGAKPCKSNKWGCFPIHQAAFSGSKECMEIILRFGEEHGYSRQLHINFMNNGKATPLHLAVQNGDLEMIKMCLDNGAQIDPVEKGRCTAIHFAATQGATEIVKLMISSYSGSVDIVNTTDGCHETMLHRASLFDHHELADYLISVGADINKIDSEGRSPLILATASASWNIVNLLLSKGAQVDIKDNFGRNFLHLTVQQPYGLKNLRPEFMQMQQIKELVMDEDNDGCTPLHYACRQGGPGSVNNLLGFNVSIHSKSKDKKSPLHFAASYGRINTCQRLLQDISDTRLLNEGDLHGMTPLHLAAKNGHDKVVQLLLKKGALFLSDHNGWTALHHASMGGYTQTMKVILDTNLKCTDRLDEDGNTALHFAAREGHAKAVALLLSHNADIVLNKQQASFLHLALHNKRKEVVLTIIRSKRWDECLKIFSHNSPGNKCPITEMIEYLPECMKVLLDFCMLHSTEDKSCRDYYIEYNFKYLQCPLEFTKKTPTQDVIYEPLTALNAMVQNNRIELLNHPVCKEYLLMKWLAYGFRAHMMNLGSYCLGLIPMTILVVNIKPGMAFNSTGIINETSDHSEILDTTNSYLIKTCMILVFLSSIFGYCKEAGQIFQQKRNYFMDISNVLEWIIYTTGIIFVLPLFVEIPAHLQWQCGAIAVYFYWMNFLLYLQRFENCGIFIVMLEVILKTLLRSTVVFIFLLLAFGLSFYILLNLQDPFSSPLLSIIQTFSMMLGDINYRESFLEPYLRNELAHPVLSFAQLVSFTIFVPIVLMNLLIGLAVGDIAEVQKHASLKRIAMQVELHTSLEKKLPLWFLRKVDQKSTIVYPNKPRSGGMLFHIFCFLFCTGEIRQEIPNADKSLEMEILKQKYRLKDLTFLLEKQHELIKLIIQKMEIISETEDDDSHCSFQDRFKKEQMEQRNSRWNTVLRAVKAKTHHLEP

Consider `CC(=O)OCC(C)(C)Cc1ccccc1`, for which, under setting [1], the “Block of hydrogen peroxide activation of TRPA1” value (“Block” below) is on record as “BLOCK ONLY H2O2/TRPA1”.
As to `C[C@H]1CC[C@]2(O1)C(C)(C)CCC[C@]2(C)O`, the “Block” value under setting [2] is listed as “BLOCK ONLY H2O2/TRPA1”.
Still for that read-out and setting: under `CCCC1CC(=O)C=C(C)C1` (stereo not drawn) stands “BLOCK ONLY H2O2/TRPA1”.
In the case of `CC(C)C=C(C=O)c1ccccc1` (mixture of isomers) [4-Methyl-2-phenyl-2 Pentenal], the inhibition at 400 µM under setting [3] was 54%.
In the case of `CC1=CC(=O)[C@@H]2C[C@H]1C2(C)C` (racemic) [dl-verbenone], the “% Reduction of Hydrogen Peroxide TRPA1 Activation” value is listed as 54.1%, the “Average Ca++ Counts” value is 3231.0 Counts and the “Block” value is recorded as “BLOCK ONLY H2O2/TRPA1”.
Take `CCCCCCO` [1-hexanol]: the “Block” value under setting [1] is “BLOCK ONLY H2O2/TRPA1”. Moreover, under setting [4], the “Average Ca++ Counts” value was determined as 5664.5 Counts and the inhibition at 100 µM turned out to be 46.5%.
The like results for `C=CC(CCCCC)OC(C)=O` (stereo not drawn) [1-octen-3-yl acetate] were, in that order, “BLOCK ONLY H2O2/TRPA1”, 3228.5 Counts and 54.2%.
For `CCCCCCCCCCCO` [1-undecanol], the “Block” value under setting [1] is “BLOCK ONLY H2O2/TRPA1”. Also, under setting [4], the “Average Ca++ Counts” value is 3396.0 Counts and the inhibition at 100 µM came out at 51.8%.
The like results for `CSCSCSC` [2,4,6-trithiaheptane] were, in that order, “BLOCK ONLY H2O2/TRPA1”, 4610.5 Counts and 56.5%.
The like results for `Cc1ccc(C)c(O)c1` [2,5-dimethylphenol] were, in that order, “BLOCK ONLY H2O2/TRPA1”, 5208.0 Counts and 50.8%.
`c1ccc(CCCC2CCCO2)cc1` (stereo not drawn) [2-(3-Phenylpropyl) tetrahydrofuran]: the “Block” value under setting [2] was “BLOCK ONLY H2O2/TRPA1”. Also, under setting [3], the inhibition at 400 µM was 74%.
Turning to `CCCCCCC1OCC(C)O1` (stereo not drawn) [2-Hexyl-4-methyl-1,3-dioxolane], under setting [1], the “Block” value is “BLOCK ONLY H2O2/TRPA1”.
Turning to `CCCc1ccc(O)c(OC)c1` [2-Methoxy-4-propyl-phenol], the “Block” value is “BLOCK ONLY H2O2/TRPA1” and the inhibition at 400 µM turned out to be 43%.
Regarding `CCC(C)COC(=O)C(C)CC` (stereo not drawn) [2-Methyl butyl 2-methylbutyrate], under setting [1], the “Block” value is listed as “BLOCK ONLY H2O2/TRPA1”.
`CC(=O)c1ccc(C)o1` [2-acetyl-5-methylfuran]: the “Block” value under setting [1] is given as “BLOCK ONLY H2O2/TRPA1”. Further, under setting [4], the “Average Ca++ Counts” value was found to be 2937.0 Counts and the inhibition at 100 µM was determined as 58.3%.
With `CCCCC(CC)CO` (stereo not drawn) [2-ethyl-1-hexanol], the “Block” value under setting [1] is recorded as “BLOCK ONLY H2O2/TRPA1”. Also, under setting [4], the “Average Ca++ Counts” value was determined as 4960.5 Counts and the inhibition at 100 µM was determined as 53.2%.
Take `CCCCCCC1OCC(C)O1` (stereo not drawn) [2-hexyl-4-methyl-1,3-dioxolan]: under setting [4], the “Average Ca++ Counts” value was determined as 3376.0 Counts and the inhibition at 100 µM was determined as 52.1%.
As to `CC1=C(O)C(=O)CC1.O` [2-hydroxy-3-methyl-2-cyclopenten-1-one hydrate], the “Average Ca++ Counts” value is 4172.0 Counts and the inhibition at 100 µM worked out at 60.6%.
In the case of `CCC(C)CS` (stereo not drawn) [2-methyl-1-butanethiol], the “Block” value under setting [1] is reported as “BLOCK ONLY H2O2/TRPA1”. Moreover, under setting [4], the “Average Ca++ Counts” value is reported as 3208.0 Counts and the inhibition at 100 µM was found to be 54.5%.
The like results for `CCC=C(C)C(=O)O` [2-methyl-2-pentenoic acid] were, in that order, “BLOCK ONLY H2O2/TRPA1”, 5040.0 Counts and 52.4%.
The like results for `CCOc1nccnc1C` [2-methyl-3-ethoxypyrazine] were, in that order, “BLOCK ONLY H2O2/TRPA1”, 3197.0 Counts and 54.6%.
The matching figures for `CCCCC(=O)C(C)C` [2-methyl-3-heptanone]: “BLOCK ONLY H2O2/TRPA1”, 4994.0 Counts and 52.9%.
Regarding `CCC(C)COC(=O)C(C)CC` (stereo not drawn) [2-methylbutyl 2-methylbutyrate], under setting [4], the “Average Ca++ Counts” value is recorded as 2685.5 Counts and the inhibition at 100 µM was found to be 61.9%.
On to `CCCCCCCC(C)O` (stereo not drawn) [2-nonanol], for which the “Block” value under setting [1] is given as “BLOCK ONLY H2O2/TRPA1”. Moreover, under setting [4], the “Average Ca++ Counts” value amounted to 3064.5 Counts and the inhibition at 100 µM was determined as 56.5%.
The matching figures for `CC=C(C=O)c1ccccc1` [2-phenyl-2-butenal]: “BLOCK ONLY H2O2/TRPA1”, 3809.0 Counts and 56.3%.
The like results for `CCC(=O)c1nccs1` [2-propionylthiazole] were, in that order, “BLOCK ONLY H2O2/TRPA1”, 4875.0 Counts and 54%.
The like results for `CCCCCCCCCC(C)O` (stereo not drawn) [2-undecanol] were, in that order, “BLOCK ONLY H2O2/TRPA1”, 3049.0 Counts and 56.7%.
`CC1CC(O)CC(C)(C)C1` (stereo not drawn) [3,3,5-Trimethylcyclohexanol]: the “Block” value under setting [2] is “BLOCK ONLY H2O2/TRPA1”. Under setting [3], the inhibition at 400 µM amounted to 72%.
As for `CC(C)CCCC(C)CCO` (stereo not drawn) [3,7-Dimethyl-1-octanol], the “Block” value under setting [1] was “BLOCK ONLY H2O2/TRPA1”.
On to `CC(C)CCCC(C)CCO` (stereo not drawn) [3,7-dimethyl-1-octanol, 95%, 3,7-dimethyl-1-octanol], for which, under setting [4], the “Average Ca++ Counts” value worked out at 5168.0 Counts and the inhibition at 100 µM amounted to 51.2%.
`CCCCCCCC1CC(C)OC1=O` (stereo not drawn) [3-Heptyldihydro-5-methyl-2(3H)-furanone]: under setting [2], the “Block” value is reported as “BLOCK ONLY H2O2/TRPA1”. For the same compound, the inhibition at 400 µM under setting [3] is 59%.
Take `CC(=O)c1cccnc1` [3-acetylpyridine, 98%, 3-acetylpyridine]: the “Block” value under setting [1] is listed as “BLOCK ONLY H2O2/TRPA1”. Under setting [4], the “Average Ca++ Counts” value turned out to be 2981.0 Counts and the inhibition at 100 µM was 57.7%.
As for `CCCC(CCOC(C)=O)SC(C)=O` (stereo not drawn) [3-acetylsulfanylhexyl acetate], under setting [2], the “Block” value is “BLOCK ONLY H2O2/TRPA1”. Moreover, under setting [3], the inhibition at 400 µM is 58%.
As to `CCCC(=O)CC` [3-hexanone], the “Block” value under setting [1] is recorded as “BLOCK ONLY H2O2/TRPA1”. Moreover, under setting [4], the “Average Ca++ Counts” value worked out at 3381.5 Counts and the inhibition at 100 µM worked out at 52%.
Consider `O=C(O)c1cccc(O)c1` [3-hydroxybenzoic acid], for which the “Block” value under setting [1] is given as “BLOCK ONLY H2O2/TRPA1”. For the same compound, under setting [4], the “Average Ca++ Counts” value worked out at 3284.5 Counts and the inhibition at 100 µM came to 53.4%.
On to `CCC(S)C(C)=O` (stereo not drawn) [3-mercapto-2-pentanone], for which, under setting [1], the “Block” value is “BLOCK ONLY H2O2/TRPA1”. Under setting [4], the “Average Ca++ Counts” value stood at 1255.5 Counts and the inhibition at 100 µM is 82.2%.
For the compound `CC1CCC(=O)C1=O` (stereo not drawn) [3-methyl-1,2-cyclopentanedione], the “Block” value under setting [1] is “BLOCK ONLY H2O2/TRPA1”. For the same compound, under setting [4], the “Average Ca++ Counts” value is given as 3246.5 Counts and the inhibition at 100 µM was determined as 53.9%.
In the case of `CC(=O)CCc1ccc2c(c1)OCO2` [4-benzo[1,3]dioxol-5-yl-butan-2-one], the “Average Ca++ Counts” value was 5431.5 Counts, the “Block” value is listed as “BLOCK ONLY H2O2/TRPA1” and the inhibition at 100 µM was determined as 48.7%.
On to `O=Cc1ccc(O)cc1` [4-hydroxybenzaldehyde], for which, under setting [4], the “Average Ca++ Counts” value is 3424.5 Counts and the inhibition at 100 µM came out at 51.4%.
As to `CSCCC(C)=O` [4-methylthio-2-butanone], under setting [4], the “Average Ca++ Counts” value was 3322.5 Counts and the inhibition at 100 µM was determined as 43.5%.
Regarding `CC(=O)c1ccc(C)cc1` [4′-methylacetophenone], the “Block” value under setting [1] is “BLOCK ONLY H2O2/TRPA1”. Further, under setting [4], the “Average Ca++ Counts” value was determined as 3244.5 Counts and the inhibition at 100 µM worked out at 53.9%.
The matching figures for `CC(C)CCCC(=O)O` [5-methylhexanoic acid]: “BLOCK ONLY H2O2/TRPA1”, 4747.0 Counts and 55.2%.
With `CCCCCC(=O)CCCCC` [6-undecanone], the “Block” value under setting [1] is “BLOCK ONLY H2O2/TRPA1”. Under setting [4], the “Average Ca++ Counts” value is listed as 3357.5 Counts and the inhibition at 100 µM is 52.3%.
For the compound `C=C(C)c1ccc(C)cc1` [Alpha-p-dimethylstyrene], the “Block” value under setting [1] was “BLOCK ONLY H2O2/TRPA1”.
In the case of `CCCCC(=O)OC1CC2CCC1(C)C2(C)C` (stereo not drawn) [Bornyl Valerate], under setting [2], the “Block” value is recorded as “BLOCK ONLY H2O2/TRPA1”. Moreover, the inhibition at 400 µM under setting [3] is 52%.
Regarding `CCCC1CC(=O)C=C(C)C1` (stereo not drawn) [Celery Ketone, 2-Cyclohexen-1-one, 3-methyl-5-propyl-], under setting [3], the inhibition at 400 µM is 56%.
Regarding `CC(=O)OCCC(C)CCC=C(C)C` (stereo not drawn) [Citronellyl acetate], the “Block” value under setting [2] is recorded as “BLOCK ONLY H2O2/TRPA1”. In addition, the inhibition at 400 µM under setting [3] is 70%.
As to `C[C@H]1CC[C@]2(O1)C(C)(C)CCC[C@]2(C)O` [Hydroxydihydrotheaspirane, 1-Oxaspiro[4.5]decan-6-ol, 2,6,10,10-tetramethyl-, (2S,5S,6S)-6-], under setting [3], the “% Reduction of Hydrogen Peroxide TRPA1 Activation” value was determined as 57%.
